From PubChem BioAssay AID248 (DTP/NCI, 2004)
Values joined by “and” are separate entries in the source; they are usually repeats but may differ in a detail not shown here. Identical values can stand only once. Inconclusive results and toxic doses are left out. Cut-off read from the data, not from the text of the source: active = T/C of 150% or more; inactive = T/C below 125%.

Test system: L1210 leukemia ip in BDF1 mice, survival T/C
Test: NCI In Vivo Anticancer Drug Screen. Data for tumor model L1210 Leukemia (intraperitoneal) in B6D2F1 (BDF1) mice
Details: endpoint: mean survival time, higher = longer survival
Summary of the method: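 Tumor cells were implanted, animals were treated, and survival was followed. The result divides the treated measurement by the vehicle-control measurement.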

[1] = dose: 50.0 mg/kg/injection, schedule: Q04DX002 (ip), vehicle: saline with Tween-80
[2] = dose: 100.0 mg/kg/injection, schedule: Q04DX003 (ip), vehicle: saline with Tween-80
[3] = dose: 200.0 mg/kg/injection, schedule: Q04DX003 (ip), vehicle: saline with Tween-80
[4] = dose: 100.0 mg/kg/injection, schedule: Q04DX003 (ip), vehicle: saline
[5] = dose: 200.0 mg/kg/injection, schedule: Q04DX003 (ip), vehicle: saline
[6] = dose: 400.0 mg/kg/injection, schedule: Q04DX003 (ip), vehicle: saline
[7] = dose: 12.5 mg/kg/injection, schedule: Q01DX009 (ip), vehicle: saline with Tween-80
[8] = dose: 25.0 mg/kg/injection, schedule: Q01DX009 (ip), vehicle: saline with Tween-80
[9] = dose: 50.0 mg/kg/injection, schedule: Q01DX009 (ip), vehicle: saline with Tween-80
[10] = dose: 100.0 mg/kg/injection, schedule: Q01DX009 (ip), vehicle: saline with Tween-80
[11] = dose: 200.0 mg/kg/injection, schedule: Q01DX009 (ip), vehicle: saline with Tween-80
[12] = dose: 100.0 mg/kg/injection, schedule: Q01DX001 (ip), vehicle: carboxymethylcellulose (CMC)
[13] = dose: 200.0 mg/kg/injection, schedule: Q01DX001 (ip), vehicle: carboxymethylcellulose (CMC)
[14] = dose: 400.0 mg/kg/injection, schedule: Q01DX001 (ip), vehicle: carboxymethylcellulose (CMC)
[15] = dose: 100.0 mg/kg/injection, schedule: Q04DX003 (ip), vehicle: Klucel (hydroxypropylcellulose) (HPC)
[16] = dose: 200.0 mg/kg/injection, schedule: Q04DX003 (ip), vehicle: Klucel (hydroxypropylcellulose) (HPC)
[17] = dose: 400.0 mg/kg/injection, schedule: Q04DX003 (ip), vehicle: Klucel (hydroxypropylcellulose) (HPC)
[18] = dose: 100.0 mg/kg/injection, schedule: Q01DX001 (ip), vehicle: saline
[19] = dose: 200.0 mg/kg/injection, schedule: Q01DX001 (ip), vehicle: saline
[20] = dose: 400.0 mg/kg/injection, schedule: Q01DX001 (ip), vehicle: saline

Measured: T/C

NC(=O)C(O)C(O)C(O)C(O)CCl (stereo unspecified)
inactive: [1] 96 % of control | dose: 100.0 mg/kg/injection, schedule: Q04DX002 (ip), vehicle: saline with Tween-80 93 % of control | dose: 200.0 mg/kg/injection, schedule: Q04DX002 (ip), vehicle: saline with Tween-80 98 % of control | dose: 400.0 mg/kg/injection, schedule: Q04DX002 (ip), vehicle: saline with Tween-80 96 % of control

Cc1cc(C(=O)O)c2cc(Br)ccc2n1
inactive: dose: 25.0 mg/kg/injection, schedule: Q01DX009 (ip), vehicle: Klucel (hydroxypropylcellulose) (HPC) 100 % of control | dose: 50.0 mg/kg/injection, schedule: Q01DX009 (ip), vehicle: Klucel (hydroxypropylcellulose) (HPC) 98 % of control | dose: 100.0 mg/kg/injection, schedule: Q01DX009 (ip), vehicle: Klucel (hydroxypropylcellulose) (HPC) 96 % of control

COc1ccc(C(=O)c2ccccc2NC(C)=O)cc1
inactive: [2] 89 % of control | [3] 98 % of control | dose: 400.0 mg/kg/injection, schedule: Q04DX003 (ip), vehicle: saline with Tween-80 94 % of control

C[CH2][Pb]([CH2]C)([CH2]C)[N]1C(=O)c2c(Cl)c(Cl)c(Cl)c(Cl)c2C1=O
inactive: dose: 12.5 mg/kg/injection, schedule: Q04DX002 (ip), vehicle: Klucel (hydroxypropylcellulose) (HPC) 107 % of control

c1ccc2c3c(ccc2c1)OCN(C12CC4CC(CC(C4)C1)C2)C3
inactive: [4] 98 % of control | [5] 105 % of control | [6] 89 % of control

CN(C)c1ccc2cc3ccc(N(C)C)cc3nc2c1
inactive: dose: 6.25 mg/kg/injection, schedule: Q01DX009 (ip), vehicle: saline with Tween-80 93 % of control | [7] 98 % of control | [8] 93 % of control | dose: 25.0 mg/kg/injection, schedule: Q04DX002 (ip), vehicle: saline with Tween-80 98 % of control | [1] 98 % of control

COc1ccc(OC)c(NC(=O)NNC(=O)CNC(=O)Nc2ccc(Cl)c(Cl)c2)c1
inactive: [7] 95 % of control | [8] 95 % of control | [9] 91 % of control and 92 % of control | [10] 88 % of control | [11] 98 % of control

COC(=O)C1OC1c1ccc(OC)c(OC)c1 (stereo unspecified)
inactive: [12] 95 % of control | [13] 97 % of control | [14] 101 % of control

O=[N+]([O-])c1cccc(P(=O)(c2cccc([N+](=O)[O-])c2)c2cccc([N+](=O)[O-])c2)c1
inactive: dose: 100.0 mg/kg/injection, schedule: Q01DX009 (ip), vehicle: saline 101 % of control | [4] 93 % of control | dose: 200.0 mg/kg/injection, schedule: Q01DX009 (ip), vehicle: saline 101 % of control | [5] 104 % of control | dose: 400.0 mg/kg/injection, schedule: Q01DX009 (ip), vehicle: saline 95 % of control | [6] 106 % of control

COc1ccccc1NC(=O)Nc1c(C)cc(C)cc1C
inactive: [15] 95 % of control | dose: 200.0 mg/kg/injection, schedule: Q01DX009 (ip), vehicle: Klucel (hydroxypropylcellulose) (HPC) 90 % of control | [16] 88 % of control | dose: 400.0 mg/kg/injection, schedule: Q01DX009 (ip), vehicle: Klucel (hydroxypropylcellulose) (HPC) 95 % of control | [17] 91 % of control

S=c1cc(S)c(=S)[nH][nH]1
inactive: dose: 5.0 mg/kg/injection, schedule: Q01DX001 (ip), vehicle: other 98 % of control | dose: 10.0 mg/kg/injection, schedule: Q01DX001 (ip), vehicle: other 96 % of control | dose: 20.0 mg/kg/injection, schedule: Q01DX001 (ip), vehicle: other 96 % of control

CC(C)CN(CC(C)C)Cn1nnc2ccccc21
inactive: dose: 75.0 mg/kg/injection, schedule: Q01DX001 (ip), vehicle: carboxymethylcellulose (CMC) 100 % of control | dose: 150.0 mg/kg/injection, schedule: Q01DX001 (ip), vehicle: carboxymethylcellulose (CMC) 94 % of control | dose: 300.0 mg/kg/injection, schedule: Q01DX001 (ip), vehicle: carboxymethylcellulose (CMC) 108 % of control

CC(=O)OC1CC2C=CC1CC2 (stereo unspecified)
inactive: dose: 50.0 mg/kg/injection, schedule: Q01DX001 (ip), vehicle: carboxymethylcellulose (CMC) 111 % of control | [12] 101 % of control | [13] 95 % of control | [14] 101 % of control

CC(=O)NS(=O)(=O)c1ccc(NC(=O)c2ccccc2C(=O)O)cc1
inactive: [9] 102 % of control | [10] 100 % of control | [2] 95 % of control | [11] 96 % of control | [3] 93 % of control

CCC1([N+](=O)[O-])COP(=O)(N2CC2)OC1 (stereo unspecified)
inactive: [12] 106 % of control | [13] 116 % of control

O=[N+]([O-])c1ccc(Cl)cc1/C=N\N=C1c2ccccc2-c2ccccc21
inactive: dose: 150.0 mg/kg/injection, schedule: Q01DX001 (ip), vehicle: other 94 % of control | dose: 300.0 mg/kg/injection, schedule: Q01DX001 (ip), vehicle: other 100 % of control

O=c1nc2ccc3[nH]c(O)c4ccc1c2c34
inactive: dose: 50.0 mg/kg/injection, schedule: Q01DX001 (ip), vehicle: saline 104 % of control | [18] 104 % of control | [19] 104 % of control | [20] 98 % of control

CCCCC(=O)N/N=C/c1ccc([N+](=O)[O-])cc1
inactive: [18] 95 % of control | [19] 89 % of control | [20] 94 % of control

C[N+](C)(C)CCCCCC[Si](C)(C)C
inactive: dose: 5.0 mg/kg/injection, schedule: Q01DX001 (ip), vehicle: saline 110 % of control | dose: 10.0 mg/kg/injection, schedule: Q01DX001 (ip), vehicle: saline 108 % of control | dose: 20.0 mg/kg/injection, schedule: Q01DX001 (ip), vehicle: saline 104 % of control | dose: 40.0 mg/kg/injection, schedule: Q01DX001 (ip), vehicle: saline 108 % of control

O=C(O)C1C=CCC2C(=O)OC(=O)C12 (stereo unspecified)
inactive: dose: 75.0 mg/kg/injection, schedule: Q01DX001 (ip), vehicle: saline 102 % of control | dose: 150.0 mg/kg/injection, schedule: Q01DX001 (ip), vehicle: saline 102 % of control | dose: 300.0 mg/kg/injection, schedule: Q01DX001 (ip), vehicle: saline 96 % of control

Cc1ccc(Nc2cc(=O)[nH]c(=O)[nH]2)c(C)c1
inactive: dose: 18.75 mg/kg/injection, schedule: Q01DX001 (ip), vehicle: saline with Tween-80 97 % of control | dose: 37.5 mg/kg/injection, schedule: Q01DX001 (ip), vehicle: saline with Tween-80 90 % of control | dose: 75.0 mg/kg/injection, schedule: Q01DX001 (ip), vehicle: saline with Tween-80 90 % of control

Cc1ccc2c(c1)Sc1ccc3ccccc3c1N2
inactive: dose: 100.0 mg/kg/injection, schedule: Q01DX009 (ip), vehicle: saline sonified 104 % of control | [15] 97 % of control | dose: 200.0 mg/kg/injection, schedule: Q01DX009 (ip), vehicle: saline sonified 88 % of control | [16] 89 % of control | dose: 400.0 mg/kg/injection, schedule: Q01DX009 (ip), vehicle: saline sonified 100 % of control | [17] 92 % of control

CN(C)CCOCCN(C)C
inactive: [18] 102 % of control | [19] 105 % of control | [20] 102 % of control

N#Cc1ccccc1OCCCCCCCCCCOc1ccccc1C#N
inactive: dose: 75.0 mg/kg/injection, schedule: Q01DX009 (ip), vehicle: Klucel (hydroxypropylcellulose) (HPC) 99 % of control | dose: 150.0 mg/kg/injection, schedule: Q01DX009 (ip), vehicle: Klucel (hydroxypropylcellulose) (HPC) 92 % of control | dose: 300.0 mg/kg/injection, schedule: Q01DX009 (ip), vehicle: Klucel (hydroxypropylcellulose) (HPC) 90 % of control
